The assay addresses T1, Kras and SOS1 (biotin-tagged human Kras loaded with GDP, His-tagged human SOS1) (Homo sapiens, UniProt P01116, G12D).
T1 construct: made in house; host or cells: E. coli (stated for Kras only)
As to the kind of experiment: Protein-protein interaction inhibition between Kras and SOS1 (KrasGl2D-SOS PPI) using AlphaScreen. The class given is binding. The method in brief:
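Kras was produced in E. coli, purified, then loaded with GDP. It was paired via streptavidin acceptor beads with His-SOS1 held on nickel donor beads, and proximity signal at 520-620 nm was read after 680 nm illumination.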
(In general: In Alpha technology, singlet oxygen from a donor bead excites a nearby acceptor bead.)

Where [1] appears, read: AlphaScreen, biotin-tagged human Kras loaded with GDP, His-tagged human SOS1, read-out: KRAS G12D-SOS PPI IC50.

Like-named read-outs stand apart in the source and are kept apart here. Positions of bridges follow the written chain, without caps; N, C: chain ends. Non-standard residues stand in square brackets, D forms with d. Residues, ends and D or L forms follow the SMILES beside them. *: point of attachment. hPhe(3-Cl-4-CF3) = N[C@@H](CCc1ccc(C(F)(F)F)c(Cl)c1)C(=O)O; hPhe(3-F,4-CF3) = N[C@@H](CCc1ccc(C(F)(F)F)c(F)c1)C(=O)O; hPhe(3,4-Cl2) = N[C@@H](CCc1ccc(Cl)c(Cl)c1)C(=O)O; hPhe(4-CF3) = N[C@@H](CCc1ccc(C(F)(F)F)cc1)C(=O)O; NMePhe(4-Cl) = CN[C@@H](Cc1ccc(Cl)cc1)C(=O)O; NMePhe(4-Me) = CN[C@@H](Cc1ccc(C)cc1)C(=O)O; Oic = O=C(O)[C@@H]1C[C@@H]2CCCC[C@@H]2N1; NMeGly(cPent) = CN[C@H](C(=O)O)C1CCCC1; Phe(3-I) = N[C@@H](Cc1cccc(I)c1)C(=O)O; Met(O2) = CS(=O)(=O)CC[C@H](N)C(=O)O; NMeAla(cPr) = CN[C@@H](CC1CC1)C(=O)O; NMeCha = CN[C@@H](CC1CCCCC1)C(=O)O; NMehLeu = CN[C@@H](CCC(C)C)C(=O)O; Gly(N-(CH2)2OEt) = CCOCCNCC(=O)O; NMeChg = CN[C@H](C(=O)O)C1CCCCC1; NMeF = CN[C@@H](Cc1ccccc1)C(=O)O; NMeD = CN[C@@H](CC(=O)O)C(=O)O; NMeL = CN[C@@H](CC(C)C)C(=O)O; Cba = N[C@@H](CC1CCC1)C(=O)O; NMePra = C#CC[C@H](NC)C(=O)O; NMeV = CN[C@H](C(=O)O)C(C)C; d(β3hA) = C[C@@H](N)CC(=O)O; N(iPr)Gly = CC(C)NCC(=O)O; Pip = O=C(O)[C@@H]1CCCCN1; NMeA = CN[C@@H](C)C(=O)O; NMeAib = CNC(C)(C)C(=O)O; Piperidide = C1CCN(*)CC1; Pyrrolidide = C1CCN(*)C1; Ac5c = NC1(C(=O)O)CCCC1; Aze = O=C(O)[C@@H]1CCN1; Aib = CC(C)(N)C(=O)O; Sar = CNCC(=O)O; OAll = C=CCO*

The source of these data is patent publication US12371454B2, “Cyclic peptide compound having Kras inhibitory action” (priority 2019, dated 2025).

The IC50 is the midpoint of a concentration-inhibition curve.

T1 sequence (P01116 1-188 isoform P01116-2 G12D): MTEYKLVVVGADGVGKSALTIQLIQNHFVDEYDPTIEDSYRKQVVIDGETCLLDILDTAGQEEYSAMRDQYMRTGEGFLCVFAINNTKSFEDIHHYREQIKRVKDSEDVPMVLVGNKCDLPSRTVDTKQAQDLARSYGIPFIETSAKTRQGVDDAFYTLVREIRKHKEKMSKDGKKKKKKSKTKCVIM

In the case of `CC(C)C[C@H]1C(=O)N[C@@H](CCS(C)(=O)=O)C(=O)N(C)CC(=O)N(C)CC(=O)N(C)[C@@H](CC2CCCCC2)C(=O)N(C)CC(=O)N[C@@H](CCc2ccc(C(F)(F)F)c(Cl)c2)C(=O)N2CCC[C@H]2C(=O)NC2(CCCC2)C(=O)N(C)[C@@H](C2CCCCC2)C(=O)N(C)[C@H](C(=O)N2CCCCC2)CC(=O)N1C` [Compound 283] ([NMeL][Met(O2)][Sar][Sar][NMeCha][Sar][hPhe(3-Cl-4-CF3)]P[Ac5c][NMeChg][NMeD]-Piperidide; lactam N-11), under setting [1], the IC50 came to 6.8 nM. For the compound `C#CC[C@H]1C(=O)N(C)[C@H](C(=O)N2CCCCC2)CC(=O)N(C)[C@@H](CC(C)C)C(=O)N[C@@H]([C@@H](C)CC)C(=O)N(C)CC(=O)N(C)CC(=O)N(C)[C@@H](CC2CCCCC2)C(=O)N(C)CC(=O)N[C@@H](CCc2ccc(C(F)(F)F)c(Cl)c2)C(=O)N2CCC[C@H]2C(=O)NC2(CCCC2)C(=O)N1C` [Compound 284] ([NMeL]I[Sar][Sar][NMeCha][Sar][hPhe(3-Cl-4-CF3)]P[Ac5c][NMePra][NMeD]-Piperidide; lactam N-11), the IC50 under setting [1] stood at 71 nM. Turning to `CC[C@H](C)[C@@H]1NC(=O)[C@@H]2CCCCN2C(=O)C[C@@H](C)NC(=O)[C@H](CC(C)C)N(C)C(=O)C(C)(C)NC(=O)[C@H](CC(C)C)N(C)C(=O)[C@H](CCc2ccc(C(F)(F)F)cc2)NC(=O)CN(C)C(=O)[C@H](Cc2ccc(Cl)cc2)N(C)C(=O)CN(C)C(=O)CN(C)C1=O` [Compound 286] (cyclo([Aib][NMeL][d(β3hA)][Pip]I[Sar][Sar][NMePhe(4-Cl)][Sar][hPhe(4-CF3)][NMeL])), under setting [1], the IC50 was 96 nM. Regarding `CC(C)C[C@H]1C(=O)N[C@@H](CC2CCC2)C(=O)N(C)CC(=O)N(C)CC(=O)N(C)[C@@H](CC2CCCCC2)C(=O)N(C)CC(=O)N[C@@H](CCc2ccc(C(F)(F)F)c(Cl)c2)C(=O)N2CCC[C@H]2C(=O)NC2(CCCC2)C(=O)N(C)[C@@H](C(C)C)C(=O)N[C@H](C)CC(=O)N1C` [Compound 290] (cyclo([Ac5c][NMeV][d(β3hA)][NMeL][Cba][Sar][Sar][NMeCha][Sar][hPhe(3-Cl-4-CF3)]P)), under setting [1], the IC50 was 160 nM. Still for that read-out and setting: with `CC[C@H](C)[C@@H]1NC(=O)[C@H](C)N(C)C(=O)C[C@@H](C(=O)N2CCCCC2)N(C)C(=O)[C@H](C(C)C)N(C)C(=O)C2(CCCC2)NC(=O)[C@@H]2CCCN2C(=O)[C@H](CCc2ccc(C(F)(F)F)c(Cl)c2)NC(=O)[C@H]2CCCN2C(=O)[C@H](CC2CCCCC2)N(C)C(=O)[C@@H]2CCN2C(=O)[C@H](C)N(C)C1=O` [Compound 293] ([NMeA]I[NMeA][Aze][NMeCha][dP][hPhe(3-Cl-4-CF3)]P[Ac5c][NMeV][NMeD]-Piperidide; lactam N-11) the figure was 120 nM; with `CC[C@H](C)[C@@H]1NC(=O)[C@H](CC(C)C)N(C)C(=O)C[C@@H](C(=O)N2CCCCC2)N(C)C(=O)[C@H](CC(C)C)NC(=O)C(C)(C)N(C)C(=O)[C@H](CC(C)C)NC(=O)[C@H](Cc2cccc(I)c2)NC(=O)CN(C)C(=O)[C@H](Cc2ccc(Cl)cc2)N(C)C(=O)CN(C)C(=O)CN(C)C1=O` [Compound 295] ([NMeL]I[Sar][Sar][NMePhe(4-Cl)][Sar][Phe(3-I)]L[NMeAib]L[NMeD]-Piperidide; lactam N-11), 68 nM. Compound `CC[C@H](C)[C@@H]1NC(=O)[C@H](CC(C)C)N(C)C(=O)C[C@@H](C(=O)N2CCCCC2)N(C)C(=O)[C@H](C2CCCCC2)N(C)C(=O)C2(CCCC2)NC(=O)[C@@H]2C[C@@H]3CCCC[C@@H]3N2C(=O)[C@H](CCc2ccc(C(F)(F)F)c(Cl)c2)NC(=O)CN(C)C(=O)[C@H](CC2CCCCC2)N(C)C(=O)CN(C)C(=O)CN(C)C1=O` [Compound 297] ([NMeL]I[Sar][Sar][NMeCha][Sar][hPhe(3-Cl-4-CF3)][Oic][Ac5c][NMeChg][NMeD]-Piperidide; lactam N-11) yielded a 50% inhibitory concentration (IC50) of 49 nM. Turning to `CC[C@H](C)[C@@H]1NC(=O)[C@H](CC(C)C)N(C)C(=O)C[C@@H](C(=O)N2CCCCC2)NC(=O)[C@H](CC(C)C)N(C)C(=O)C2(CCCC2)NC(=O)[C@@H]2CCCN2C(=O)[C@H](CCc2ccc(C(F)(F)F)c(F)c2)NC(=O)CN(C)C(=O)[C@H](CC2CCCCC2)N(C)C(=O)CN(C)C(=O)CN(C)C1=O` [Compound 298] ([NMeL]I[Sar][Sar][NMeCha][Sar][hPhe(3-F,4-CF3)]P[Ac5c][NMeL]D-Piperidide; lactam N-11), the IC50 under setting [1] was 21 nM. Same read-out and setting: the figure for `CC[C@H](C)[C@@H]1NC(=O)[C@H](C)N(C)C(=O)C[C@@H](C)NC(=O)[C@H](CC(C)C)N(C)C(=O)[C@H](Cc2ccccc2)N(C)C(=O)[C@@H]2CCCCN2C(=O)[C@H](CCc2ccc(C(F)(F)F)cc2)NC(=O)CN(C)C(=O)[C@H](Cc2ccc(Cl)cc2)N(C)C(=O)CN(C)C(=O)CN(C)C1=O` [Compound 299] (cyclo(I[Sar][Sar][NMePhe(4-Cl)][Sar][hPhe(4-CF3)][Pip][NMeF][NMeL][d(β3hA)][NMeA])) is 130 nM; for `CC[C@H](C)[C@@H]1NC(=O)[C@H](CCC(C)C)N(C)C(=O)C[C@@H](C(=O)N(C)C)N(C)C(=O)[C@H](C2CCCC2)N(C)C(=O)C2(CCCC2)NC(=O)[C@@H]2CCCN2C(=O)[C@H](CCc2ccc(C(F)(F)F)c(Cl)c2)NC(=O)CN(C)C(=O)[C@H](Cc2ccc(C)cc2)N(C)C(=O)[C@@H]2CCN2C(=O)[C@H](C)NC1=O` [Compound 303, (5S,8S,11S,15S,18S,23aS,29S,35S,37aS)-8-((S)-sec-butyl)-29-(3-chloro-4-(trifluoromethyl)phenethyl)-18-cyclopentyl-11-isopentyl-N,N,5,12,16,19,33,36-octamethyl-35-(4-methylbenzyl)-4,7,10,13,17,20,23,28,31,34,37-undecaoxotetratriacontahydro-2H,4H-spiro[azeto[2,1-u]pyrrolo[2,1-i][1,4,7,10,13,16,19,22,25,28,31]undecaazacyclotetratriacontine-21,1′-cyclopentane]-15-carboxamide] ([NMehLeu]IA[Aze][NMePhe(4-Me)][Sar][hPhe(3-Cl-4-CF3)]P[Ac5c][NMeGly(cPent)][NMeD]-NMe2; lactam N-11) it is 0.68 nM. Still for that read-out and setting: the figure for `CC[C@H](C)[C@@H]1NC(=O)[C@H](CC(C)C)N(C)C(=O)C[C@@H](C)NC(=O)[C@H](C(C)C)N(C)C(=O)C2(CCCC2)NC(=O)[C@@H]2CCCN2C(=O)[C@H](CCc2ccc(C(F)(F)F)c(Cl)c2)NC(=O)CN(C)C(=O)[C@H](CC2CCCCC2)N(C)C(=O)CN(C)C(=O)CN(C(C)C)C1=O` [Compound 305] (cyclo([Ac5c][NMeV][d(β3hA)][NMeL]I[N(iPr)Gly][Sar][NMeCha][Sar][hPhe(3-Cl-4-CF3)]P)) is 170 nM; for `C=CCOC(=O)CC[C@@H]1NC(=O)[C@H](CCc2ccc(C(F)(F)F)cc2)NC(=O)CN(C)C(=O)[C@H](Cc2ccc(Cl)cc2)N(C)C(=O)CN(C)C(=O)CN(C)C(=O)[C@H]([C@@H](C)CC)NC(=O)[C@H](C)N(C)C(=O)C[C@@H](C(=O)N2CCCC2)NC(=O)[C@H](CC(C)C)N(C)C(=O)[C@H](Cc2ccccc2)N(C)C1=O` [Compound 306] ([NMeA]I[Sar][Sar][NMePhe(4-Cl)][Sar][hPhe(4-CF3)]E(OAll)[NMeF][NMeL]D-Pyrrolidide; lactam N-11) it is 44 nM; for `CC[C@H](C)[C@@H]1NC(=O)[C@H](CC(C)C)N(C)C(=O)C[C@@H](C(=O)N2CCCC2)N(C)C(=O)[C@H](CC(C)C)NC(=O)C(C)(C)N(C)C(=O)[C@H](CC(C)C)NC(=O)[C@H](CCc2ccc(C(F)(F)F)c(F)c2)NC(=O)CN(C)C(=O)[C@H](CC2CCCCC2)N(C)C(=O)CN(C)C(=O)CN(C)C1=O` [Compound 312] ([NMeL]I[Sar][Sar][NMeCha][Sar][hPhe(3-F,4-CF3)]L[NMeAib]L[NMeD]-Pyrrolidide; lactam N-11) it is 1 nM. Take `CC[C@H](C)[C@@H]1NC(=O)[C@H](CC(C)C)N(C)C(=O)C[C@@H](C(=O)N2CCCCC2)N(C)C(=O)[C@H](CC(C)C)NC(=O)C(C)(C)N(C)C(=O)[C@H](Cc2ccc(OC)cc2)NC(=O)[C@H](Cc2cccc(I)c2)NC(=O)CN(C)C(=O)[C@H](CC2CCCCC2)N(C)C(=O)CN(C)C(=O)CN(C)C1=O` [Compound 320] ([NMeL]I[Sar][Sar][NMeCha][Sar][Phe(3-I)]Y(Me)[NMeAib]L[NMeD]-Piperidide; lactam N-11): under setting [1], the IC50 came out at 9.9 nM. The same measure, in the same setting: with `CC[C@H](C)[C@@H]1NC(=O)[C@H](CC(C)C)N(C)C(=O)C[C@@H](C(=O)N2CCCCC2)N(C)C(=O)[C@H](C(C)C)N(C)C(=O)C2(CCCC2)NC(=O)[C@@H]2CCCN2C(=O)[C@H](CCc2ccc(Cl)c(Cl)c2)NC(=O)CN(C)C(=O)[C@H](CC2CCCCC2)N(C)C(=O)[C@@H]2CCCCN2C(=O)CN(C)C1=O` [Compound 324] ([NMeL]I[Sar][Pip][NMeCha][Sar][hPhe(3,4-Cl2)]P[Ac5c][NMeV][NMeD]-Piperidide; lactam N-11) the figure was 380 nM; with `CC[C@H](C)[C@@H]1NC(=O)[C@H](CC(C)C)N(C)C(=O)C[C@@H](C(=O)N2CCCCC2)N(C)C(=O)[C@H](C(C)C)N(C)C(=O)C2(CCCC2)NC(=O)[C@@H]2CCCN2C(=O)[C@H](CCc2ccc(C(F)(F)F)c(Cl)c2)NC(=O)CN(C)C(=O)[C@H](CC2CC2)N(C)C(=O)CN(C)C(=O)CN(C)C1=O` [Compound 325] ([NMeL]I[Sar][Sar][NMeAla(cPr)][Sar][hPhe(3-Cl-4-CF3)]P[Ac5c][NMeV][NMeD]-Piperidide; lactam N-11), 14 nM. Take `CCOCCN1CC(=O)N(C)CC(=O)N(C)[C@@H](CC2CCCCC2)C(=O)N(C)CC(=O)N[C@@H](CCc2ccc(C(F)(F)F)c(Cl)c2)C(=O)N2CCC[C@H]2C(=O)NC2(CCCC2)C(=O)N(C)[C@@H](C(C)C)C(=O)N[C@H](C)CC(=O)N(C)[C@@H](CC(C)C)C(=O)N[C@@H]([C@@H](C)CC)C1=O` [Compound 329] (cyclo([Ac5c][NMeV][d(β3hA)][NMeL]I[Gly(N-(CH2)2OEt)][Sar][NMeCha][Sar][hPhe(3-Cl-4-CF3)]P)): the IC50 under setting [1] came to 40 nM.
